Source: patent US8802671B2, “Quinoline derivatives as antibacterial agents” (Janssen Pharmaceutica NV, priority 2005, dated 2014)
Values after ≈ are worked out from the molar mass of the structure shown.

What was measured:
[1] = test system: Bacillus subtilis (ATCC43639); assay: Microtitre plate assay, IC90 determination; format: cell-based; conditions: 90% inhibitory concentration for bacterial growth; for IC90: read-out: IC90 BSU 43639
Method: (§1) The bacteria used in this study were grown overnight in flasks containing 100 ml Mueller-Hinton Broth (Becton Dickinson—cat. no. 275730) in sterile de-ionized water, with shaking, at 37° C. Stocks (0.5 ml/tube) were stored at −70° C. until use. Bacteria titrations were performed in microtiter plates and colony forming units (CFUs) were determined. In general, an inoculum level of approximately 100 CFUs was used for susceptibility testing.
(§2) Anti Bacterial Susceptibility Testing: IC90 Determination
(§3) Flat-bottom, sterile 96-well plastic microtiter plates were filled with 180 μl of sterile deionized water, supplemented with 0.25% BSA. Subsequently, stock solutions (7.8× final test concentration) of compounds were added in 45 μl volumes in column 2. Serial five-fold dilutions (45 μl in 180 μl) were made directly in the microtiter plates from column 2 to reach column 11. Untreated control samples with (column 1) and without (column 12) inoculum were included in each microtiter plate. Depending on the bacteria type, approximately 10 to 60 CFU per well of bacteria inoculum (100 TCID50), in a volume of 100 μl in 2.8× Mueller-Hinton broth medium, was added to the rows A to H, except column 12. The same volume of broth medium without inoculum was added to column 12 in row A to H. The cultures were incubated at 37° C. for 24 hours under a normal atmosphere (incubator with open air valve and continuous ventilation). At the end of incubation, one day after inoculation, the bacterial growth was quantitated fluorometrically. Therefore resazurin (0.6 mg/ml) was added in a volume of 20 μl to all wells 3 hours after inoculation, and the plates were re-incubated overnight. A change in colour from blue to pink indicated the growth of bacteria. The fluorescence was read in a computer-controlled fluorometer (Cytofluor Biosearch) at an excitation wavelength of 530 nm and an emission wavelength of 590 nm. The % growth inhibition achieved by the compounds was calculated according to standard methods. The IC90 (expressed in μg/ml) was defined as the 90% inhibitory concentration for bacterial growth.

[2] = test system: Enterococcus faecalis (ATCC14506); assay: Microtitre plate assay, IC90 determination; format: cell-based; conditions: 90% inhibitory concentration for bacterial growth; for IC90: read-out: IC90 EFA 14506
Method: as §1, §2, §3

[3] = test system: Enterococcus faecalis (ATCC29212); assay: Microtitre plate assay, IC90 determination; format: cell-based; conditions: 90% inhibitory concentration for bacterial growth; for IC90: read-out: IC90 EFA 29212
Method: as §1, §2, §3

[4] = test system: Listeria monocytogenes (ATCC49594); assay: Microtitre plate assay, IC90 determination; format: cell-based; conditions: 90% inhibitory concentration for bacterial growth; for IC90: read-out: IC90 LMO 49594
Method: as §1, §2, §3

[5] = test system: Pseudomonas aeruginosa (ATCC27853); assay: Microtitre plate assay, IC90 determination; format: cell-based; conditions: 90% inhibitory concentration for bacterial growth; for IC90: read-out: IC90 PAE 27853
Method: as §1, §2, §3

[6] = test system: Staphylococcus aureus (ATCC25923); assay: Microtitre plate assay, IC90 determination; format: cell-based; conditions: for IC90 STA 25923: 90% inhibitory concentration for bacterial growth; for IC90: Staphylococcus aureus, ATCC25923, 90% inhibitory concentration for bacterial growth, read-out: IC90 STA 25923
Method: as §1, §2, §3

[7] = test system: Staphylococcus aureus (ATCC29213); assay: Microtitre plate assay, IC90 determination; format: cell-based; conditions: 90% inhibitory concentration for bacterial growth, 37° C., resazurin fluorescence; for IC90 STA 29213: 24 hours; for IC90: Staphylococcus aureus, ATCC29213, 24 h, read-out: IC90 STA 29213
Method: as §1, §2, §3

[8] = test system: Streptococcus pneumoniae (ATCC6305); assay: Microtitre plate assay, IC90 determination; format: cell-based; conditions: 90% inhibitory concentration for bacterial growth; for IC90: read-out: IC90 SPN 6305
Method: as §1, §2, §3

[9] = test system: Streptococcus pyogens (ATCC8668); assay: Microtitre plate assay, IC90 determination; format: cell-based; conditions: for IC90 SPY 8668: 90% inhibitory concentration for bacterial growth; for IC90: Streptococcus, ATCC8668, 90% inhibitory concentration for bacterial growth, read-out: IC90 SPY 8668
Method: as §1, §2, §3

[10] = test system: methicilline resistant Staphylococcus aureus (MRSA) (a clinical isolate from the University of Antwerp); assay: Microtitre plate assay, IC90 determination; format: cell-based; conditions: 90% inhibitory concentration for bacterial growth; for IC90: Staphylococcus aureus, MRSA, read-out: IC90 STA RMETHIC
Method: as §1, §2, §3

[11] = test system: Streptococcus mutans (ATCC33402); assay: Microtitre plate assay, IC90 determination; format: cell-based; conditions: 90% inhibitory concentration for bacterial growth, read-out: IC90 SMU 33402
Method: as §1, §2, §3

| SMILES | IC90 [1] [µg/mL] | IC90 [3] [µg/mL] | IC90 [4] [µg/mL] | IC90 [5] [µg/mL] | IC90 [6] [µg/mL] | IC90 [7] [µg/mL] | IC90 [8] [µg/mL] | IC90 [9] [µg/mL] | melting point [°C] | IC90 [10] [µg/mL] | other results |
| --- | --- | --- | --- | --- | --- | --- | --- | --- | --- | --- | --- |
| CCc1cc2cc(C(c3ccccc3)C(O)(CCN(C)C)c3cccc4ccccc34)ccc2nc1Cl (single isomer, unassigned) [Compound 5] |  |  |  |  |  |  |  |  |  |  | IC90 BSU 43639 [1]: 12.8 µg/mL (≈ 25.1 µM); IC90 EFA 14506 [2]: 11.4 µg/mL (≈ 22.4 µM); IC90 EFA 29212 [3]: 12.8 µg/mL (≈ 25.1 µM); IC90 LMO 49594 [4]: 12.8 µg/mL (≈ 25.1 µM); IC90 PAE 27853 [5]: 12.8 µg/mL (≈ 25.1 µM); IC90 STA 25923 [6]: 5.1 µg/mL (≈ 10 µM); IC90 STA 29213 [7]: 12.8 µg/mL (≈ 25.1 µM); IC90 SPN 6305 [8]: 12.8 µg/mL (≈ 25.1 µM); IC90 SPY 8668 [9]: 12.8 µg/mL (≈ 25.1 µM); IC90 STA RMETHIC [10]: 12.8 µg/mL (≈ 25.1 µM) |
| CN(C)CC(c1cccc2ccccc12)C(O)C(Cc1ccccc1)c1ccc2cc(Br)ccc2n1 (single isomer, unassigned) [Compound 2] | 13.6 (≈ 25.2 µM) | 10.8 (≈ 20 µM) | 10.8 (≈ 20 µM) | 10.8 (≈ 20 µM) | 13.6 (≈ 25.2 µM) | 12.1 (≈ 22.4 µM) | 13.6 (≈ 25.2 µM) | 10.8 (≈ 20 µM) | 143 | 13.6 (≈ 25.2 µM) | IC90 [2]: 12.1 µg/mL (≈ 22.4 µM); IC90 [11]: 10.8 µg/mL (≈ 20 µM) |
| CN(C)CC(c1cccc2ccccc12)C(O)C(Cc1ccccc1)c1ccc2cc(Br)ccc2n1 (single isomer, unassigned) [Compound 3] |  |  |  |  |  |  |  |  | 69 |  |  |
| CN(C)CC(c1cccc(F)c1)C(O)C(Cc1ccccc1)c1ccc2cc(Br)ccc2n1 (single isomer, unassigned) [Compound 4] |  |  |  |  |  |  |  |  | 179 |  |  |
| CN(C)CC(c1cccc(F)c1)C(O)C(Cc1ccccc1)c1ccc2cc(Br)ccc2n1 (single isomer, unassigned) [Compound 1] |  | 12.8 (≈ 25.2 µM) | 10.1 (≈ 19.9 µM) | 12.8 (≈ 25.2 µM) | 12.8 (≈ 25.2 µM) | 12.8 (≈ 25.2 µM) | 12.8 (≈ 25.2 µM) | 10.1 (≈ 19.9 µM) | 136 | 12.8 (≈ 25.2 µM) | IC90 [11]: 10.1 µg/mL (≈ 19.9 µM) |
| CCc1cc2cc(C(c3ccccc3)C(O)(CCN(C)C)c3cccc4ccccc34)ccc2nc1Cl (single isomer, unassigned) [Compound 6] | 12.8 (≈ 25.1 µM) | 12.8 (≈ 25.1 µM) | 12.8 (≈ 25.1 µM) | 12.8 (≈ 25.1 µM) |  | 12.8 (≈ 25.1 µM) | 12.8 (≈ 25.1 µM) | 12.8 (≈ 25.1 µM) |  |  | IC90 [2]: 11.4 µg/mL (≈ 22.4 µM); IC90 STA 25923 [6]: 12.8 µg/mL (≈ 25.1 µM); IC90 STA RMETHIC [10]: 50.9 µg/mL (≈ 100 µM) |
| CCc1cc2ccc(C(c3ccccc3)C(O)(CCN(C)C)c3cc(F)cc(F)c3)cc2nc1Cl (single isomer, unassigned) [Compound 9] |  |  |  |  |  |  |  |  |  |  | IC90 BSU 43639 [1]: 12.4 µg/mL (≈ 25 µM); IC90 [2]: 11.1 µg/mL (≈ 22.4 µM); IC90 EFA 29212 [3]: 12.4 µg/mL (≈ 25 µM); IC90 LMO 49594 [4]: 12.4 µg/mL (≈ 25 µM); IC90 PAE 27853 [5]: 9.9 µg/mL (≈ 20 µM); IC90 STA 25923 [6]: 12.4 µg/mL (≈ 25 µM); IC90 STA 29213 [7]: 11.1 µg/mL (≈ 22.4 µM); IC90 [11]: 9.9 µg/mL (≈ 20 µM); IC90 SPN 6305 [8]: 12.4 µg/mL (≈ 25 µM); IC90 SPY 8668 [9]: 9.9 µg/mL (≈ 20 µM); IC90 STA RMETHIC [10]: 12.4 µg/mL (≈ 25 µM) |

Further lines, with some results ahead:

| IC90 [1] [µg/mL] | IC90 [3] [µg/mL] | IC90 [4] [µg/mL] | IC90 [5] [µg/mL] | IC90 [6] [µg/mL] | IC90 [7] [µg/mL] | IC90 [8] [µg/mL] | IC90 [9] [µg/mL] | melting point [°C] | SMILES | IC90 [10] [µg/mL] | other results |
| --- | --- | --- | --- | --- | --- | --- | --- | --- | --- | --- | --- |
|  |  |  |  |  | 7.43 (≈ 15.9 µM) | 7.43 (≈ 15.9 µM) |  |  | COc1nc2ccc(C(c3ccccc3)C(O)(CCCCN(C)C)c3ccccc3)cc2cc1C (single isomer, unassigned) [Compound 13] |  |  |
| 39.3 (≈ 79.4 µM) | 12.4 (≈ 25 µM) | 7.9 (≈ 16 µM) | 12.4 (≈ 25 µM) | 49.5 (≈ 100 µM) | 12.4 (≈ 25 µM) | 12.4 (≈ 25 µM) | 12.4 (≈ 25 µM) |  | CCc1cc2cc(C(c3ccccc3)C(O)(CCN(C)C)c3cc(F)cc(F)c3)ccc2nc1Cl (single isomer, unassigned) [Compound 11] | 49.5 (≈ 100 µM) |  |
| 12.4 (≈ 25 µM) | 12.4 (≈ 25 µM) | 12.4 (≈ 25 µM) | 9.9 (≈ 20 µM) | 12.4 (≈ 25 µM) | 12.4 (≈ 25 µM) | 12.4 (≈ 25 µM) | 12.4 (≈ 25 µM) |  | CCc1cc2ccc(C(c3ccccc3)C(O)(CCN(C)C)c3cc(F)cc(F)c3)cc2nc1Cl (single isomer, unassigned) [Compound 10] | 12.4 (≈ 25 µM) |  |
|  |  |  |  |  | 1.53 (≈ 3.17 µM) | 1.53 (≈ 3.17 µM) |  |  | CCc1cc2cc(C(c3ccccc3)C(O)(CCCCN(C)C)c3ccccc3)ccc2nc1OC (single isomer, unassigned) [Compound 12] |  |  |
